The values that follow come from patent US10058530B2, “Combination therapies for the treatment of Alzheimer's disease and related disorders” (The General Hospital Corporation, priority 2012, dated 2018).

The test system of data set [1] is Aβ fibril formation. The following applies: cited from earlier work.
Data set [2] has as its system cholinergic neurons. The following applies: aged rhesus monkeys; cited from earlier work.
The subject of data set [3] is basal forebrain cholinergic neurons. The following applies: rats; cited from earlier work.
The test system of data set [4] is Aβ peptide. Kind of data set: Aβ aggregation by thioflavin T assay. The following applies: for inhibition of Aβ amyloid peptide polymerization into oligomers and higher order aggregates: summary of four separate in vitro assays, nanomolar concentrations; for inhibition of Aβ aggregation, thioflavin fluorescence: nanomolar concentration. Format: biochemical. On the procedure:
One of the most routinely used approaches to monitor Aβ polymerization is the thioflavin T binding assay. […] Aβ peptide at 5 μM was mixed with 10 μM thioflavin T with drug at different concentrations.
(§1) One of the most routinely used approaches to monitor Aβ polymerization is the thioflavin T binding assay (Elmaleh, 2014; Hori, 2015). […] Aβ peptide at 5 μM was mixed with 10 μM thioflavin T with drug at different concentrations.
Fibrillization of synthetic Aβ40 (FIG. 12A, left column and FIG. 12B, left column) or Aβ42 (FIG. 12A, right column and FIG. 12B, right column) peptides was followed over 1 hour.

Data set [5] has as its system Alzheimer's disease patients. The following applies: Phase 2a; cited from earlier work.
The conditions of data set [6]: in vivo; cited from earlier work.
Data set [7] relates to AD patients. The following applies: some AD patients; Wettstein and Spiegel, 1985; cited from earlier work.
A short description of data set [8]: clinical. The following applies: human, in vivo; for MRT: mean residence time in plasma.
Data set [9] concerns the target T1, Aβ42 (Homo sapiens, UniProt P05067). Description: Thioflavin T fibrillization assay, synthetic Aβ42. Format: biochemical. Further details: host or cells: synthetic peptide. The following applies: 5 nM, 50 nM and 500 nM; followed over 1 hour; smaller effects than on Aβ40. On the procedure: as §1
(§2) Fibrillization of synthetic Aβ40 (FIG. 12A, left column and FIG. 12B, left column) or Aβ42 (FIG. 12A, right column and FIG. 12B, right column) peptides was followed over 1 hour. The corresponding Vmax index (milli-units/minute) is indicated on each graph.

For data set [10] the following is noted: inhalation studies, Beach et al. 1981; cited from earlier work.
For data set [11], the system named is TBS soluble Aβ. Kind of data set: TBS soluble Aβ level in brain of APP/PS1 mice by WAKO ELISA. Format: in vivo. An excerpt: (§3) The treatment was given by IP injection everyday for 7 days before sacrificing the mice and harvesting the brain. Brain extracts were quantified for the total amount of Aβ40, Aβ42 and Aβ oligomers.
(§4) FIG. 5 illustrates the measurement of TBS soluble Aβ level by WAKO ELISA. […] As indicated, the number of animals per group is N=3 or 5, average±SE. The p value is significant using one-way ANOVA test (Bonferroni's test).
In general terms: ELISA stands for enzyme-linked immunosorbent assay.

In data set [12] the target is T2, Aβ40 (Homo sapiens, UniProt P05067). Kind of data set: Thioflavin T fibrillization assay, synthetic Aβ40. Format: biochemical. Further details: host or cells: synthetic peptide. The following applies: 5 nM, 50 nM and 500 nM; followed over 1 hour. On the procedure: as §1, §2
The conditions of data set [13]: J. Pharm. Sci. 92(6), 2003; cited from earlier work.
The conditions of data set [14]: human lung, high inspiratory rates, dry powder inhaler; cited from earlier work.
Data set [15] concerns Aβ oligomer. Kind of data set: TBS soluble Aβ oligomer level in brain of APP/PS1 mice (IBL 82E1-82E1 oligomer ELISA). Format: in vivo. The following applies: IP daily 7 days.
Source text: as §3
FIG. 6 illustrates the measurement of TBS soluble Aβ oligomer level IBL oligomer ELISA (82E1-82E1). […] FIGS. 6B and 6C show the difference the experiments with Gdn and those without Gdn using Aβ WAKO ELISA. N=3 or 5 animals per group, average±SE. The p value is not significant using one-way ANOVA test (Bonferroni's test).

For data set [16], the target named is T1, Aβ42. Description: TBS soluble Aβ42 level in brain of APP/PS1 mice by WAKO ELISA. Format: in vivo. Further details: from tissue; host or cells: brain TBS-soluble extract of APP/PS1 transgenic mice. The following applies: two higher doses (2.1 mg/kg and 3.15 mg/kg), IP daily 7 days.
Source text: as §3, §4

Data set [17] addresses T2, Aβ40. Description: TBS soluble Aβ40 level in brain of APP/PS1 mice by WAKO ELISA. Format: in vivo. Details: from tissue; host or cells: brain TBS-soluble extract of APP/PS1 transgenic mice. The following applies: two higher doses (2.1 mg/kg and 3.15 mg/kg), IP daily 7 days.
Source text: as §3, §4

The target of data set [18] is Abeta (1-40) peptides (Homo sapiens, UniProt P05067). Kind of data set: UV aggregation assay. Format: biochemical. On the procedure: Abeta peptide aggregation and the impact of drugs to slow or prevent Abeta aggregation was measured by a UV absorbance assay (Findeis, 1999). Abeta (1-40) peptides, at 50 μM, were mixed with 50 μM drug in assay buffer and the plate was incubated at ambient temperature on a plate reader. The UV absorbance was monitored at 540 nm over a 2-3 h period.
Polymerization of Aβ-monomer peptides into clusters of trimers and tetramers initiates the Aβ aggregation process into protofibrils and then into fibrils that form amyloid plaques.

For data set [19] the following is noted: human.
The subject of data set [20] is microglial cells. Description: Aβ uptake by cultured microglial cells. Format: cell-based. The following applies: 0, 10 nM, 10 μM or 1 mM, 16 hours. As for the experimental part:
After the incubation, the concentrations of […]-42 (right panel) in media were measured using Aβ ELISA and normalized with microglia cell number and according to the PBS control condition. (n=3 experiments; *, P<0.05, **, P<0.01)

Data set [21] deals with microglia (Iba1) around amyloid deposits. Kind of data set: Immunostaining of Aβ and microglial marker Iba1 in brain sections of APP/PS1 mice. The following applies: 3.15 mg/kg daily for seven days, vs PBS. Format: in vivo.
Data set [22] in a line: Brain concentration of PIB analog TS3124. The following applies: in vivo.

“Also recorded” adds a separate entry of the source. Read-outs that look alike come from different tables or passages of the source.

Abeta (1-40) peptides, sequence (P05067 672-711 limits assumed): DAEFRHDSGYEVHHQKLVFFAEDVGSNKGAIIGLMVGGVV
T2 sequence (P05067 672-711 limits assumed): as above
T1 sequence (P05067 672-713 limits assumed): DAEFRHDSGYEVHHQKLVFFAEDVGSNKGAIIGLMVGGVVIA

In the case of `O=c1c(O)c(-c2ccc(O)cc2)oc2cc(O)cc(O)c12` [Kaempferol], the “Effects on Aβ fibril formation” value in data set [1] is “Enhancing”.
Regarding `O=c1c(O)c(-c2ccc(O)c(O)c2)oc2cc(O)cc(O)c12` [Quercetin], the “Effects on Aβ fibril formation” value in data set [1] is listed as “Inhibitory”.
For the compound `O=c1c(O)c(-c2ccc(O)cc2)oc2cc(O)ccc12` [3,4′,7-Trihydroxyflavone, 3,4′,7-Tri-hydroxyflavone], the “Effects on Aβ fibril formation” value in data set [1] is on record as “Inhibitory”.
Turning to “NGF: nerve growth factor; CERE-110 is NGF gene therapy”, in [2], the cholinergic axonal density entry is reported as “restores cholinergic axonal density in aged monkeys to levels observed in young monkeys” and the cholinergic neuron atrophy entry is “ameliorates cholinergic neuron atrophy”. In data set [3], the age-related behavioral decline result is listed as “reversed age-related behavioral decline” and the “cholinergic neuron cell death” value is reported as “prevented cholinergic neuron cell death”.
In the case of `O=c1c(O)c(-c2cccc(O)c2)oc2cc(O)ccc12` [3,3′,7-Trihydroxyflavone, 3,3′,7-Tri-hydroxyflavone], the “Effects on Aβ fibril formation” value in data set [1] is “Enhancing”.
Consider `O=C([O-])c1cc(=O)c2c(OCC(F)COc3cccc4oc(C(=O)[O-])cc(=O)c34)cccc2o1.[Na+].[Na+]` [TS734], for which the “inhibition of Aβ amyloid peptide polymerization into oligomers and higher order aggregates” value in data set [4] is given as “effectively inhibits”.
Turning to `O=C(NC1CN2CCC1CC2)c1n[nH]c2ccccc12` (stereo not drawn) [R3487], the “effect on multiple measures of cognition” value in data set [5] is on record as “statistically significant effect”.
Turning to `O=c1c(O)c(-c2ccc(O)c(O)c2)oc2ccccc12` [3,3′,4′-Trihydroxyflavone, 3,3′,4′-Tri-hydroxyflavone], in data set [1], the “Effects on Aβ fibril formation” value is “Inhibitory”.
Regarding `O=c1cc(-c2ccccc2)oc2cc(O)cc(O)c12` [Chrysin], the “Effects on Aβ fibril formation” value in [1] is recorded as “Enhancing”.
In the case of `O=c1c(O)c(-c2ccc(O)cc2)oc2cc(O)ccc12` [5-Deoxykaempferol, 5-Deoxy-kaempferol], the “Effects on Aβ fibril formation” value in data set [1] is “Enhancing”.
On to `CCN1C(=O)CC2(CCN(C)CC2)C1=O` [RS-86, 2-ethyl-8-methyl-2,8-diazospiro-4,5-decan-1,3-dione], for which, in data set [6], the brain penetration entry is listed as “low”. Further, in [7], the “cognitive function, mood and social behavior” value was “improves cognitive function, mood and social behavior”.
On to `O=c1cc(-c2ccc(O)c(O)c2)oc2cc(O)cc(O)c12` [Luteolin], for which the “Effects on Aβ fibril formation” value in data set [1] was “Inhibitory”.
Fisetin: the “Effects on Aβ fibril formation” value in data set [1] is reported as “Inhibitory”.
Broadly, the MRT is a mean duration of stay, worked out from the concentration-time curve. For orientation: half-life means how long it takes for the measured level to halve. A lower half-life goes with rapid decline. One may read the LogP as the decadic logarithm of the partition coefficient of the neutral form, usually between octanol and water. Consider `O=C([O-])c1cc(=O)c2c(OCC(O)COc3cccc4oc(C(=O)[O-])cc(=O)c34)cccc2o1.[Na+].[Na+]` [cromolyn sodium], for which the MRT in data set [8] (inhaled or intranasal, 17.1 mg, 17.1 mg inhaled) was 3.3 ± 2.9 h; in [8] (inhaled or intranasal, 17.1 mg, range, 17.1 mg inhaled), 0.79 to 12.1 h; in data set [8] (inhaled or intranasal, 34.2 mg, 34.2 mg inhaled (double dose)), 2.8 ± 1 h; in data set [8] (inhaled or intranasal, 34.2 mg, range, 34.2 mg inhaled (double dose)) it was 1 to 5.4 h. In addition, the half-life in data set [8] (inhaled or intranasal, half-life of clearance from plasma, inhaled) was 105 ± 54 min; in [8] (inhaled or intranasal, half-life of clearance from plasma, range, inhaled), 30 to 222 min; in [8] (plasma half-life corresponding to mean residence time, 17.1 mg inhaled), around 138 min. Further, the “Aβ42 fibrillization, Thioflavin T fluorescence” value in data set [9] was “significantly decreased”. Also, the “pulmonary and cardiovascular (CV) function assessments” value in data set [10] is given as “no treatment effect”. The “monomeric Aβ (Gdn−)” value in data set [11] (APP/PS1 mice, IP daily 7 days, no guanidine) was “decease; also recorded: reduction”. The “decrease of total soluble Aβ levels” value in data set [11] (after 1 week of peripheral administration) is given as “over 50%”. Also, in data set [12], the “Aβ40 fibrillization, Thioflavin T fluorescence” value is recorded as “significantly decreased”. In addition, in [13], the “% PSA” value is 44. Besides, in data set [13], the LogP is given as 1.9. Besides, the PSA in data set [13] is 189. Besides, the “inhaled drug-delivered-dose absorbed into the bloodstream” value in data set [14] was 10-15%. For the same compound, in data set [15], the “Aβ oligomer level as difference with and without Gdn, WAKO ELISA” value is listed as “not changed”. For the same compound, in data set [16], the “decrease in the amount of Aβ42” value is listed as “up to 50%”. The “decrease in the amount of Aβ40” value in data set [17] is “up to 50%”. In addition, the “concentration at which Aβ peptide polymerization is inhibited” value in data set [4] was found to be 5 nM. Also, the results for the “inhibition of Aβ aggregation, thioflavin fluorescence” value in data set [4] and in [4] (listed as CO399) were “inhibition of Aβ aggregation; also recorded: inhibiting effect” and “inhibition of Aβ aggregation”, respectively. In addition, the “inhibition of Aβ amyloid peptide polymerization into oligomers and higher order aggregates” value is “inhibits its polymerization into oligomers and higher order aggregates; also recorded: effectively inhibits” in data set [4]; “effectively inhibits” in [4] (listed as cromolyn). The “inhibition of Aβ peptide polymerization” value in data set [18] worked out at 8 fold. The “inhibition of the rate of Aβ polymerization” value in data set [18] (equimolar with Aβ (50 μM)) is recorded as 7 fold. For the same compound, the “time to 50% polymerization” value in [18] (equimolar with Aβ (50 μM), 14 minutes in absence of drug) is 75 min. For the same compound, the “AUC (plasma)” value in data set [19] (17.1 mg inhaled) amounted to 147.5±67.1 ng/mlxh; in [19] (34.2 mg inhaled (double dose)) it was 254.4±93.8 ng/mlxh. In addition, the “AUC (plasma), range” value was 44.7-287.0 ng/mlxh in [19] (17.1 mg inhaled) and 122.1-443.3 ng/mlxh in data set [19] (34.2 mg inhaled (double dose)). In addition, the maximum plasma concentration in data set [19] (17.1 mg inhaled) was found to be 47.1 ± 33.6 ng/mL; in data set [19] (34.2 mg inhaled (double dose)), 95.0 ± 45.5 ng/mL. Also, the “maximum plasma concentration, range” value in [19] (17.1 mg inhaled) lay in the range of 14.0 to 133 ng/mL; in [19] (34.2 mg inhaled (double dose)) it was 36.1 to 236 ng/mL. In addition, the “time of maximum plasma concentration” value in data set [19] (17.1 mg inhaled) came to 23.3 ± 16.9 min; in data set [19] (34.2 mg inhaled (double dose)) it was 22.2 ± 19.4 min. Also, the “time of maximum plasma concentration, range” value in [19] (17.1 mg inhaled) and in [19] (34.2 mg inhaled (double dose)) was 5 to 60 min throughout. Further, the “plasma concentration at 12 hours following inhalation” value in data set [19] (inhaled, expected) is given as “negligible”. In data set [20] (50 nM synthetic Aβ40), the “Aβ40 levels in media of microglia culture” value is reported as “dose-dependent decrease”. Besides, the “Aβ42 levels in media of microglia culture” value in data set [20] (50 nM synthetic Aβ42) was “dose-dependent decrease”. Besides, the “percentage of Iba1 immunoreactivity overlapping with amyloid” value in data set [21] was “higher percentage of Iba1 immunoreactivity overlapping with amyloid”; in [21] (listed as Cromolyn Sodium), “increased overlap between Aβ and Iba1”.
As for `O=c1c(O)c(-c2cc(O)c(O)c(O)c2)oc2cc(O)cc(O)c12` [Myricetin], the “Effects on Aβ fibril formation” value in data set [1] is on record as “Inhibitory”.
With `CC(F)CNc1ccc(-c2nc3ccc(O)cc3s2)cc1` (stereo not drawn) [TS3124], the brain concentration in [22] is 4%.
